Measured values published in article PMC9186412, “Rational Framework for the Design of Trp- and Arg-Rich Peptide Antibiotics Against Multidrug-Resistant Bacteria” (Frontiers in Microbiology, 2022).
≈ marks a conversion by molar mass, not a printed value. Read-outs that look alike come from different tables or passages of the source. Where a SMILES comes first, the peptide text is derived from it. Bridges are numbered along the chain shown (N, C = ends). [ ]: non-standard residue; d: D form. The star is where a group is joined. X1 = CC[C@H](C)CCCCC(=O)*; Dab = NCC[C@H](N)C(=O)O

Columns and labels:
A. baumannii = test: microbe, parasite or virus in culture; assay type: cell-based, Acinetobacter baumannii
Experimental: (§1) Bacterial clinical isolates, used for initial screening and in previous studies ([Deslouches et al., 2013]; [Lin et al., 2018]), were anonymously provided by the clinical microbiology laboratory of the University of Pittsburgh medical Center. The panel used for secondary screening was from [CDC (2013)] (Supplementary Table 3), with resistance profiles data. Bacteria are stored in lock-secured –80°C freezer and typically retrieved by obtaining single colonies on agar plates prior for subsequent liquid broth cultures. Suspensions of test bacteria were prepared from log phase of growth by diluting overnight cultures at 1:100 with fresh cation-adjusted MHB (MHB2, Millipore Sigma, United States) and incubating for additional 3–4 h. Bacteria were spun at 3,000 × g for 10 min and the pellet resuspended in test condition media (Millipore Sigma, United States) to determine bacterial turbidity using a Den-1B densitometer (Grant Instruments, United States) at 0.5 McFarland (unit of bacterial density) corresponding to […].
(§2) To examine antibacterial activity, we used minor modifications of a standard growth inhibition assay endorsed by the Clinical and Laboratory Standards Institute (CLSI), as previously described ([Deslouches et al., 2013]). Bacteria were incubated with each of the indicated peptides in MHB2. The bacterial cells were kept in an incubator for 18 h at 37°C, which is linked to a robotic system that feeds a plate reader every hour with one of 8 × 96-well plates. This set-up allows the collection of growth kinetic data at A 570 (absorbance at 570 nm) to examine growth inhibition in real time (BioTek Instruments, United States). […] The assays are typically repeated a second time. If the MIC is different, a third experimental trial is performed to confirm the MIC. To assess bactericidal properties of the peptide, the assay was modified by using 15% fetal bovine serum (FBS, for a more physiologically relevant test condition) mixed with 25% MHB2 and 60% PBS. Bacterial cells (colony forming unit/mL or CFU/mL) were enumerated after incubating treated bacteria for 3 h and plating serially diluted samples on broth agar medium at 37°C overnight. Minimum bactericidal concentration (MBC) was determined as the peptide concentration at which complete bacterial killing was observed. […] Data were analyzed using GraphPad Prism software.

P. aeruginosa = test: microbe, parasite or virus in culture; assay type: cell-based, Pseudomonas aeruginosa
Experimental: as §1, §2

[1] = test system: ESKAPE pathogens and Escherichia coli; details: initial test strains; MHB2
Experimental: Bacteria were incubated with each of the indicated peptides in MHB2. […] To assess bactericidal properties of the peptide, the assay was modified by using 15% fetal bovine serum (FBS, for a more physiologically relevant test condition) mixed with 25% MHB2 and 60% PBS. […] Data were analyzed using GraphPad Prism software.

CDC AR isolates = test system: CDC AR isolates; set-up: key: S (green), susceptible; I (blue), intermediate; R (red), resistant; details: data provided by the CDC, ref CDC, cited from earlier work
Text: Supplement Table_3.XLSX, sheet "CDC AR isolates profiles" | column: G(-) strains

Enterobacter spp = test: microbe, parasite or virus in culture; assay type: cell-based, Enterobacter spp (aerogenes, cloacae)
Experimental: as §1, §2

E. coli = test: microbe, parasite or virus in culture; assay type: cell-based, Escherichia coli
Experimental: as §1, §2

K. pneumoniae = test: microbe, parasite or virus in culture; assay type: cell-based, Klebsiella pneumoniae
Experimental: as §1, §2

CC[C@H](C)CCCCC(=O)N[C@@H](CCN)C(=O)N[C@H](C(=O)N[C@@H](CCN)C(=O)N[C@H]1CCNC(=O)[C@H]([C@@H](C)O)NC(=O)[C@H](CCN)NC(=O)[C@H](CCN)NC(=O)[C@H](CC(C)C)NC(=O)[C@@H](CC(C)C)NC(=O)[C@H](CCN)NC1=O)[C@@H](C)O [Colistin, reference compound] (X1-[Dab]T[Dab][Dab][Dab][dL]L[Dab][Dab]T; lactam 4-C (inferred); N-terminus assumed)
MIC (A. baumannii; strain AB273, CDC clinical strain, confirmed by a second or third experimental trial): 0.5 µM (≈ 0.585 µg/mL) | MIC (A. baumannii; strain AB274, CDC clinical strain, confirmed by a second or third experimental trial): 0.25 µM (≈ 0.292 µg/mL) | MIC (A. baumannii; strain AB275 (first line, r8), CDC clinical strain, confirmed by a second or third experimental trial): 0.25 µM (≈ 0.292 µg/mL) | MIC (A. baumannii; strain AB275 (second line, r9), CDC clinical strain, confirmed by a second or third experimental trial): 0.5 µM (≈ 0.585 µg/mL) | MIC (A. baumannii; strain AB-A2, UPMC clinical strain, MHB2, 18 h, 37°C, A570, confirmed by 2nd or 3rd trial): 0.5 µM (≈ 0.585 µg/mL) | MIC (A. baumannii; strain AB-A3, UPMC, MHB2, 18 h, 37°C): 0.25 µM (≈ 0.292 µg/mL) | MIC (A. baumannii; strain AB-F8, UPMC, MHB2, 18 h, 37°C): 0.5 µM (≈ 0.585 µg/mL) | MIC (A. baumannii; strain AB-F9, UPMC, MHB2, 18 h, 37°C): 0.25 µM (≈ 0.292 µg/mL) | MIC (P. aeruginosa; strain PA01, MHB2, 18 h, 37°C): 0.5 µM (≈ 0.585 µg/mL) | MIC (P. aeruginosa; strain PA14, MHB2, 18 h, 37°C): 0.25 µM (≈ 0.292 µg/mL) | MIC (P. aeruginosa; strain PA97-5, UPMC, MHB2, 18 h, 37°C): 0.25 µM (≈ 0.292 µg/mL) | MIC (P. aeruginosa; strain PA129-5, UPMC, MHB2, 18 h, 37°C): 0.5 µM (≈ 0.585 µg/mL) | MIC (P. aeruginosa; strain PA216, CDC clinical strain, confirmed by a second or third experimental trial): 0.5 µM (≈ 0.585 µg/mL) | MIC (P. aeruginosa; strain PA229, CDC clinical strain, confirmed by a second or third experimental trial): >16 µM | MIC (P. aeruginosa; strain PA230, CDC clinical strain, confirmed by a second or third experimental trial): 0.5 µM (≈ 0.585 µg/mL) | MIC (P. aeruginosa; strain PA231, CDC clinical strain, confirmed by a second or third experimental trial): 1 µM (≈ 1.17 µg/mL) | activity against the GPB strains [1]: inactive | Antibiotic susceptibility profile (CDC AR isolates; Acinetobacter baumannii AB273, CDC AR isolate): S | Antibiotic susceptibility profile (CDC AR isolates; Acinetobacter baumannii AB274, CDC AR isolate): S | Antibiotic susceptibility profile (CDC AR isolates; Acinetobacter baumannii AB275, CDC AR isolate): S | Antibiotic susceptibility profile (CDC AR isolates; Acinetobacter baumannii AB276, CDC AR isolate): S | Antibiotic susceptibility profile (CDC AR isolates; Enterobacter cloacae E62, CDC AR isolate): S | Antibiotic susceptibility profile (CDC AR isolates; Enterobacter cloacae E546, CDC AR isolate): R | Antibiotic susceptibility profile (CDC AR isolates; Klebsiella pneumoniae KP542, CDC AR isolate): I | Antibiotic susceptibility profile (CDC AR isolates; Klebsiella pneumoniae KP548, CDC AR isolate): R | Antibiotic susceptibility profile (CDC AR isolates; Klebsiella pneumoniae KP550, CDC AR isolate): R | Antibiotic susceptibility profile (CDC AR isolates; Klebsiella pneumoniae KP552, CDC AR isolate): R | Antibiotic susceptibility profile (CDC AR isolates; Pseudomonas aeruginosa PA229, CDC AR isolate): S | Antibiotic susceptibility profile (CDC AR isolates; Pseudomonas aeruginosa PA230, CDC AR isolate): S | Antibiotic susceptibility profile (CDC AR isolates; Pseudomonas aeruginosa PA231, CDC AR isolate): S | Antibiotic susceptibility profile (CDC AR isolates; Pseudomonas aeruginosa PA232, CDC AR isolate): S | Antibiotic susceptibility profile (CDC AR isolates; Pseudomonas aeruginosa PA239, CDC AR isolate): R | MIC (Enterobacter spp; strain EA62 (aerogenes), CDC clinical strain, confirmed by a second or third experimental trial): 2 µM (≈ 2.34 µg/mL) | MIC (Enterobacter spp; strain EA518 (aerogenes), UPMC, MHB2, 18 h, 37°C): 0.25 µM (≈ 0.292 µg/mL) | MIC (Enterobacter spp; strain EA547 (aerogenes), CDC clinical strain, confirmed by a second or third experimental trial): 0.25 µM (≈ 0.292 µg/mL) | MIC (Enterobacter spp; strain EA596 (aerogenes), UPMC, MHB2, 18 h, 37°C): 0.25 µM (≈ 0.292 µg/mL) | MIC (Enterobacter spp; strain EC470 (cloacae), UPMC, MHB2, 18 h, 37°C): 0.25 µM (≈ 0.292 µg/mL) | MIC (Enterobacter spp; strain EC544 (cloacae), CDC clinical strain, confirmed by a second or third experimental trial): 4 µM (≈ 4.68 µg/mL) | MIC (Enterobacter spp; strain EC545 (cloacae), CDC clinical strain, confirmed by a second or third experimental trial): 2 µM (≈ 2.34 µg/mL) | MIC (Enterobacter spp; strain EC560 (cloacae), UPMC, MHB2, 18 h, 37°C): 0.25 µM (≈ 0.292 µg/mL) | MIC (E. coli; strain Eco541, CDC clinical strain, confirmed by a second or third experimental trial): 1 µM (≈ 1.17 µg/mL) | MIC (E. coli; strain Eco543, CDC clinical strain, confirmed by a second or third experimental trial): 8 µM (≈ 9.36 µg/mL) | MIC (E. coli; strain Eco546, CDC clinical strain, confirmed by a second or third experimental trial): 0.25 µM (≈ 0.292 µg/mL) | MIC (E. coli; strain Eco549, CDC clinical strain, confirmed by a second or third experimental trial): 1 µM (≈ 1.17 µg/mL) | MIC (E. coli; strain Eco25922, MHB2, 18 h, 37°C): 0.5 µM (≈ 0.585 µg/mL) | MIC (E. coli; strain YDC107, UPMC, MHB2, 18 h, 37°C): 0.5 µM (≈ 0.585 µg/mL) | MIC (E. coli; strain YDC337, UPMC, MHB2, 18 h, 37°C): 0.25 µM (≈ 0.292 µg/mL) | MIC (E. coli; strain YDC748, UPMC, MHB2, 18 h, 37°C): 0.25 µM (≈ 0.292 µg/mL) | MIC (K. pneumoniae; colistin-resistant CDC isolate KP46, MHB2): 4 µM (≈ 4.68 µg/mL) | MIC (K. pneumoniae; colistin-resistant CDC isolate KP87, MHB2): >16 µM | MIC (K. pneumoniae; colistin-resistant CDC isolate KP125, MHB2): 8 µM (≈ 9.36 µg/mL) | MIC (K. pneumoniae; colistin-resistant CDC isolate KP507, MHB2): 16 µM (≈ 18.7 µg/mL) | MIC (K. pneumoniae; colistin-resistant CDC isolate KP1010, MHB2): 16 µM (≈ 18.7 µg/mL) | MIC (K. pneumoniae; colistin-resistant CDC isolate KP1041, MHB2): >16 µM | MIC (K. pneumoniae; colistin-resistant CDC isolate KP1045, MHB2): >16 µM | MIC (K. pneumoniae; strain KP542, CDC clinical strain, confirmed by a second or third experimental trial): >16 µM | MIC (K. pneumoniae; strain KP548, CDC clinical strain, confirmed by a second or third experimental trial): 0.25 µM (≈ 0.292 µg/mL) | MIC (K. pneumoniae; strain KP550, CDC clinical strain, confirmed by a second or third experimental trial): 0.25 µM (≈ 0.292 µg/mL) | MIC (K. pneumoniae; strain KP552, CDC clinical strain, confirmed by a second or third experimental trial): 0.25 µM (≈ 0.292 µg/mL) | MIC (K. pneumoniae; strain KPA5 (colistin-resistant), UPMC, MHB2, 18 h, 37°C): >16 µM | MIC (K. pneumoniae; strain KPB3, UPMC, MHB2, 18 h, 37°C): 0.25 µM (≈ 0.292 µg/mL) | MIC (K. pneumoniae; strain KPC3, UPMC, MHB2, 18 h, 37°C): 0.25 µM (≈ 0.292 µg/mL)
